Our source for the Viable cell rate values is patent US6528048B1, “Ophthalmic solutions” (Rohto Pharmaceutical Co., Ltd., priority 1998, dated 2003).

The series concerns rabbit corneal epithelial cells. Kind of series: Cytotoxicity, Neutral red assay. The class given is cell-based. Conditions: cultured 2 days. The protocol:
Cytotoxicity of the compound (3) was evaluated by conducting a test according to the method of Neutral red assay using rabbit corneal epithelial cells of a CornePack kit (Kurabo Industries, Ltd.). The frozen cells of the primary culture were inoculated at a density of 4000 cells/cm^2 in a 25-cm^2 flask. The cells were cultured at 37° C. under an atmosphere of 5% CO2 for 5 days (the secondary culture) and then 100 μl aliquots of them were inoculated in the wells of a 96-well multi-plate at a cell density of 2500 cells/well. The culture was continued at 37° C. under an atmosphere of 5% CO2 for 3 days (tertiary culture). […] A 100 μl aliquot of the solutions was added into each well containing the corneal epithelial cells of the tertiary culture. The cells were further cultured at 37° C. under an atmosphere of 5% CO2 for 2 days. A 100 μl aliquot of a Neutral red solution (about 150 μg/ml) was added into each well. The cells were further cultured at 37° C. under an atmosphere of 5% CO2 for 2 hours to incorporate Neutral red into lysosomes of the viable cells. Then the culture supernatants were discarded by inverting the plate. A 200 μl aliquot of a solution containing formalin and calcium chloride were added into each well and the cells were fixed for 1 minute to improve the cell adhesion to the plate. The remaining Neutral red was washed out from the wells. Subsequently, the supernatants in the wells were discarded and 100 μl aliquots of a mixture consisting of acetic acid and ethanol were added to the wells. The plate was allowed to stand for 20 minutes to extract Neutral red incorporated in the viable cells. The amount of Neutral red was determined by measuring the absorbance at a wavelength of 540 nm. The averaged absorbance value of the blank (the measured value, which was obtained by the same assay procedure but in the absence of Neutral red, for the untreated control cells cultured under the same condition) was subtracted from the measured value of the sample to give the correction absorbance value. The viable cell rate was calculated from the ratio of the sample absorbance to the absorbance for the untreated cells according to the following equation. Viable cell rate in each plate=(Averaged absorbance of each test solution/Averaged absorbance of the untreated control)×100

Consider `N=C(NCCCCCCNC(=N)NC(=N)Nc1ccc(Cl)cc1)NC(=N)Nc1ccc(Cl)cc1.O=C(O)[C@H](O)[C@@H](O)[C@H](O)[C@H](O)CO.O=C(O)[C@H](O)[C@@H](O)[C@H](O)[C@H](O)CO` [Chlorhexidine gluconate], for which the Viable cell rate amounted to 103% (test solution 1.0 μg/ml), 74% (test solution 2.5 μg/ml), 49% (test solution 5.0 μg/ml) and 3% (test solution 10.0 μg/ml).

For Benzalkonium chloride, the Viable cell rate reads like this: (test solution 0.5 μg/ml) 60%; (test solution 1.0 μg/ml) 52%; (test solution 2.5 μg/ml) 49%; (test solution 5.0 μg/ml) 2%.
